Test results as given in patent publication US6358987B1, “Metalloproteinase inhibitors” (British Biotech Pharmaceuticals Limited, priority 1997, dated 2002).

Row | melting point [°C] | Compound
1 | 200 to 202 | CC(C)C[C@@H](C(=O)N[C@H](CO)Cc1ccccc1)[C@H](CN(C)S(C)(=O)=O)C(=O)NO [Example 3, N^4-(1S-Benzyl-2-hydroxy-ethyl)-N^1-hydroxy-3R-isobutyl-2R-[(methanesulfonyl-methyl-amino)-methyl]-succinamide]
2 | 219 to 221 | CC(C)C[C@@H](C(=O)N[C@H](CO)Cc1c[nH]cn1)[C@H](CN(C)S(C)(=O)=O)C(=O)NO [Example 5, N^1-Hydroxy-N^4-[2-hydroxy-1S-(1H-imidazol-4-ylmethyl)-ethyl]-3R-isobutyl-2S-[(methanesulfonyl-methyl-amino)-methyl]-succinamide]
3 | 125 to 128 | CC(C)C[C@@H](C(=O)N[C@H](CO)Cc1ccc(O)cc1)[C@H](CN(C)S(C)(=O)=O)C(=O)NO [Example 6, N^1-Hydroxy-N^4-[2-hydroxy-1S-(4-hydroxy-benzyl)-ethyl]-3R-isobutyl-2S-[(methanesulfonyl-methyl-amino)-methyl]-succinamide]
4 | 196 to 203 | COc1ccc(S(=O)(=O)N(C)C[C@H](C(=O)NO)[C@@H](CC(C)C)C(=O)N[C@H](CO)Cc2ccccc2)cc1 [Example 8, N^4-(1S-Benzyl-2-hydroxy-ethyl)-N^1-hydroxy-3R-isobutyl-2S-{[(4-methoxy-benzenesulfonyl)-methyl-amino]-methyl}-succinamide]
5 | 208 to 209 | COc1ccc(S(=O)(=O)N(C)C[C@H](C(=O)NO)[C@@H](CC(C)C)C(=O)N[C@H](CO)Cc2c[nH]cn2)cc1 [Example 9]

Second part, the molecule before the results:

Row | Compound | melting point [°C]
6 | CC(C)C[C@@H](C(=O)N[C@H](C(=O)N(C)C)C(C)(C)C)[C@H](CN(C)S(C)(=O)=O)C(=O)NO [Example 1] | 216 to 218
7 | COCCOCCNC(=O)[C@@H](NC(=O)[C@H](CC(C)C)[C@H](CN(C)S(C)(=O)=O)C(=O)NO)C(C)(C)C [Example 2, N^1-Hydroxy-3R-isobutyl-2R-[(methanesulfonyl-methyl-amino)-methyl]-N^4-{1S-[2-(2-methoxy-ethoxy)-ethyl-carbamoyl]-2,2-dimethyl-propyl}-succinamide] | 192 to 193
8 | CC(C)C[C@@H](C(=O)N[C@H](CO)C(C)(C)C)[C@H](CN(C)S(C)(=O)=O)C(=O)NO [Example 4, N^1-Hydroxy-N^4-(1S-hydroxymethyl-2,2-dimethylpropyl)-3R-isobutyl-2R-[(methanesulfonyl-methyl-amino)-methyl]-succinamide] | 167 to 169
9 | COc1ccc(S(=O)(=O)N(C)C[C@H](C(=O)NO)[C@@H](CC(C)C)C(=O)N[C@H](C(=O)N(C)C)C(C)(C)C)cc1 [Example 7, N^4-(1S-Dimethylcarbamoyl-2,2-dimethyl-propyl)-N^1-hydroxy-3R-isobutyl-2S-{[(4-methoxy-benzenesulfonyl)-methyl-amino]-methyl}-succinamide] | 217 to 222
10 | COc1ccc(S(=O)(=O)N(C)C[C@H](C(=O)NO)[C@@H](CC2CCCC2)C(=O)N[C@H](CO)C(C)(C)C)cc1 [Example 10, 3R-Cyclopentylmethyl-N^1-hydroxy-N^4-(1S-hydroxymethyl-2,2-dimethyl-propyl)-2S-{[(4-methoxy-benzenesulfonyl)-methyl-amino]-methyl}-succinamide] | 181 to 184
11 | CN(C[C@H](C(=O)NO)[C@@H](CCCc1ccc(-c2ccccc2)cc1)C(=O)N[C@H](CO)Cc1ccccc1)S(C)(=O)=O [Example 12, N^4-(1S-Benzyl-2-hydroxy-ethyl)-3R-(3-biphenyl-4-yl-propyl)-N^1-hydroxy-2S-[(methanesulfonyl-methyl-amino)-methyl]-succinamide] | 201 to 207
12 | COc1ccc(S(=O)(=O)N(C)C[C@H](C(=O)NO)[C@@H](CCCc2ccc(-c3ccccc3)cc2)C(=O)N[C@H](CO)C(C)(C)C)cc1 [Example 13, 3R-(3-Biphenyl4-yl-propyl)-N^1-hydroxy-N^4-(1S-hydroxymethyl-2,2-dimethyl-propyl)-2S-{[(4-methoxy-benzenesulfonyl)-methyl-amino]-methyl}-succinamide] | 226 to 228
13 | COc1ccc(S(=O)(=O)N(C)C[C@H](C(=O)NO)[C@@H](CCCc2ccc(-c3ccccc3)cc2)C(=O)N[C@H](CO)Cc2ccccc2)cc1 [Example 14, N^4-(1S-Benzyl-2-hydroxy-ethyl)-3R-(3-biphenyl-4-yl-propyl)-N^1-hydroxy-2S-{[(4-methoxy-benzenesulfonyl)-methyl-amino]-methyl}-succinamide] | 245 to 247
